{
  "source": "paper PMC5404848",
  "about": "(Cell Chemical Biology, 2017)",
  "assay_type_in_all_cases": "cell-based, Human",
  "key": {"SAOS-2 cells [1]": {"test_system": "SAOS-2 cells", "assay": "Colony formation assay", "conditions": "5 μM for 5 days", "experimental": "(§1) […]. […] […]. In addition a colony-forming assay was performed on cyclin D1-addicted MCF-7 cells and cyclin D1-negative SAOS-2 cells. […].\n(§2) One thousand of the cells was then seeded on 6-well plates and cultured for 2-4 weeks until the generation of well-visible clones. The plates were stained with crystal violet, imaged with the ChemiDoc MP system and analyzed using the ImageJ software ([Schneider et al., 2012]) and ‘Analyze particles’ tool. The surviving fraction (SF) was calculated using the equation: SF = (PE of treated sample / PE of control) * 100%, where PE (plating efficiency) = Ncolonies / Ncells plated."}, "MCF-7 cells [2]": {"test_system": "MCF-7 cells", "assay": "Colony formation assay", "conditions": "5 μM for 5 days", "experimental": "as §1, §2"}, "HCT116 p53^wt cells [3]": {"test_system": "HCT116 p53^wt cells", "assay": "MTT assay (cell viability), 6 days treatment", "conditions": "for GI50: HCT116^wt, MTT assay", "experimental": "(§3) To test the biological activity of the compounds, we performed MTT (3-(4,5-dimethylthiazol-2-yl)-2,5-diphenyltetrazolium bromide) and lactate dehydrogenase (LDH) release assays. […] To track not only the toxic (lethal) but also growth-inhibitory (GI) effect in the MTT assay, we treated the cells for 6 days.\n(§4) For MTT assay, the cells were seeded on 96-well transparent plates and treated the next day with the compounds or DMSO for 6 days. Thiazolyl Blue Tetrazolium Bromide (MTT, Sigma Aldrich) was added for 60 minutes to a final concentration of […]. The medium was removed and MTT crystals were dissolved in isopropanol supplemented with 40 mM HCl. The absorbance was measured with Infinite 200 microplate reader (Tecan Group Ltd.) at 570 nm with the reference wavelength 650 nm for background subtraction."}, "HCT116 p53^−/− cells [4]": {"test_system": "HCT116 p53^−/− cells", "assay": "MTT assay (cell viability), 6 days treatment", "conditions": "for GI50: HCT116 p53^−/−, MTT assay", "experimental": "as §3, §4"}, "MCF-7 cells [5]": {"test_system": "MCF-7 cells", "assay": "Synchronization-release assay (serum starvation and release)", "conditions": "pre-treatment during 2 days serum starvation, release 10% FBS 24 hr", "source_text": "Cyclin D1 is a key modulator of the transition through the G1/S checkpoint and is known to be sensitive to proliferative signals delivered by the mitogens. To evaluate the interplay between the mitogens provided by the serum and LCAHA, we performed a synchronization-release assay on the cells treated with LCAHA. To assess the involvement of cyclin D1 in this interplay, we used MCF-7 (cyclin D1-dependent) and SAOS-2 (cyclin D1-negative) cells. The cells were synchronized in G0/G1 by the removal of fetal bovine serum (FBS) for 2 days of the culture in the presence of LCAHA. After this time, the cells were released by the addition of medium containing 10% FBS for 24 hr (still in the presence of the compound).\nFigure S4. The analysis of the progression of MCF-7 and SAOS-2 cells through the cell cycle following serum starvation and release by the addition of serum. Related to […]\nFor the experiment, cyclin D1-dependent MCF-7 and cyclin D1-negative SAOS-2 cell lines were used.\nThe cells were synchronized in G0/G1 by the removal of FBS for 2 days of the culture in the presence of LCAHA compound. […] The cells were fixed, stained with PI and analysed for cell cycle distribution with ModFit LT Software. […] The statistical significance was evaluated using t-test: * p<0.05, ** […]"}, "U-2 OS cells": {"test_system": "U-2 OS cells", "assay": "MTT assay, 6 days", "experimental": "(§5) In addition a colony-forming assay was performed on cyclin D1-addicted MCF-7 cells and cyclin D1-negative SAOS-2 cells.\nas §4"}, "SAOS-2 cells [6]": {"test_system": "SAOS-2 cells", "assay": "MTT assay, 6 days", "experimental": "as §5, §4"}, "MCF-7 cells [7]": {"test_system": "MCF-7 cells", "assay": "MTT assay, 6 days", "experimental": "as §5, §4"}, "HCT116 p53^wt cells [8]": {"test_system": "HCT116 p53^wt cells", "assay": "Western blot analysis of protein expression", "source_text": "(§6) The progression from G1 to S phase relies largely on the expression and activity of D cyclins. To verify whether the observed impairment in cell-cycle progression following LCAHA treatment is associated with D cyclins, we investigated the expression of cyclins D1 and D3 in HCT116 p53^wt and HCT116 p53^−/− cells."}, "HCT116 p53^−/− cells [9]": {"test_system": "HCT116 p53^−/− cells", "assay": "Western blot analysis of protein expression", "conditions": "5 or 20 μM, 48 hr", "source_text": "as §6"}, "HCT116 p53^−/− cells [10]": {"test_system": "HCT116 p53^−/− cells", "assay": "Cell cycle analysis (PI / BrdU, flow cytometry)", "conditions": "5 or 10 μM, 48 hr", "experimental": "Low concentrations of LCAHA inhibit the growth of HCT116 cells without affecting their survival. To investigate this effect, we analyzed the cell-cycle distribution. Cells treated for 48 hr with LCAHA or DMSO were pulse-labeled with BrdU for 1 hr and stained with fluorescein isothiocyanate (FITC)-anti-bromodeoxyuridine (BrdU) antibody and propidium iodide (PI).\nThe cells were treated with DMSO or LCAHA for 48 hours and pulse-labelled with 10 μM bromodeoxyuridine (BrdU, Sigma Aldrich) for the last hour of the treatment. After that, the cells were either harvested by trypsinization and fixed with 96% ethanol, or cultured for additional 3-9 hours in the absence of BrdU before harvesting and fixation. The cells were stained with PI and FITC-conjugated anti-BrdU antibody (BioLegend, cat. 364104) and analysed with Fortessa flow cytometer (Becton Dickinson). Cell cycle distribution was analysed using ModFit LT Software (Verity Software House)."}, "[11]": {"conditions": "Homo sapiens, HCT-116, 144 h, 6 days"}, "[12]": {"conditions": "concentration range 2–20 μM, MTT, 6 days"}},
  "data": [
    {"smiles": "C[C@H](CCC(=O)NO)[C@H]1CC[C@H]2[C@@H]3CC[C@@H]4C[C@H](O)CC[C@]4(C)[C@H]3CC[C@]12C", "note": "[LCAHA, N-(hydroxy)-3-hydroxylithocholanamide]", "values": [
      {"measurement": "clonogenic potential", "setting": "SAOS-2 cells [1]", "result": "did not affect the clonogenic potential"},
      {"measurement": "clonogenic potential (surviving fraction and mean colony size)", "setting": "MCF-7 cells [2]", "result": "significant decrease of the clonogenic potential"},
      {"measurement": "GI50", "setting": "HCT116 p53^wt cells [3]; 6 days", "result": "0.87 ± 0.09", "unit": "µM"},
      {"measurement": "GI50", "setting": "HCT116 p53^wt cells [3]; [11]", "result": "< 1", "unit": "µM"},
      {"measurement": "LD50 (concentration killing 50% of cells)", "setting": "HCT116 p53^wt cells [3]; Homo sapiens, HCT-116, 144 h, read-out: LD50, HCT116^wt, MTT assay, 6 days", "result": "> 25", "unit": "µM"},
      {"measurement": "growth of cells inhibited", "setting": "HCT116 p53^wt cells [3]; [12]", "result": "about 60%"},
      {"measurement": "GI50", "setting": "HCT116 p53^−/− cells [4]; 6 days", "result": "0.96 ± 0.29", "unit": "µM"},
      {"measurement": "GI50", "setting": "HCT116 p53^−/− cells [4]; [11]", "result": "< 1", "unit": "µM"},
      {"measurement": "LD50", "setting": "HCT116 p53^−/− cells [4]; Homo sapiens, HCT-116, 144 h, read-out: LD50, HCT116 p53^−/−, MTT assay, 6 days", "result": "> 25", "unit": "µM"},
      {"measurement": "growth of cells inhibited", "setting": "HCT116 p53^−/− cells [4]; [12]", "result": "about 60%"},
      {"measurement": "entry into the S phase after serum release", "setting": "MCF-7 cells [5]", "result": "significantly inhibited the entry into the S phase"},
      {"measurement": "viability (MTT)", "setting": "U-2 OS cells", "result": "biphasic, dose-dependent decrease of viability"},
      {"measurement": "viability (MTT)", "setting": "SAOS-2 cells [6]", "result": "viability decrease was observed only at high concentrations"},
      {"measurement": "viability (MTT)", "setting": "MCF-7 cells [7]", "result": "biphasic, dose-dependent decrease of viability"},
      {"measurement": "cyclin D1 level over time course", "setting": "HCT116 p53^wt cells [8]; 5 μM, 24, 26, 28, 30, or 32 hr", "result": "significant decrease in cyclin D1"},
      {"measurement": "cyclin D1 expression", "setting": "HCT116 p53^wt cells [8]; 5 or 20 μM, 48 hr", "result": "significant, dose-dependent decrease"},
      {"measurement": "cyclin D3 expression", "setting": "HCT116 p53^wt cells [8]; 5 or 20 μM, 48 hr", "result": "no effect"},
      {"measurement": "cyclin D1 expression", "setting": "HCT116 p53^−/− cells [9]", "result": "significant, dose-dependent decrease"},
      {"measurement": "cyclin D3 expression", "setting": "HCT116 p53^−/− cells [9]", "result": "no effect"},
      {"measurement": "G0/G1 arrest", "setting": "HCT116 p53^−/− cells [10]", "result": "mild, but significant G0/G1 arrest"}
    ]}
  ]
}
